Measured values from patent US8178506B2, “Oligomeric compounds and compositions for use in modulation of small non-coding RNAs” (Regulus Therapeutics Inc., priority 2003, dated 2012).
In the oligonucleotide strings, read from the 5' end, every base follows the letter of its sugar. An asterisk marks phosphorothioate; unmarked linkages are phosphodiester. Other units and linkages are bracketed, terminal groups are in braces. A string of capitals states the bases alone. e = 2'-O-(2-methoxyethyl) (MOE); [5mC] = 5-methylcytosine; d = 2'-deoxy (DNA)

Experiments:
HeLa cells = assay: Cell cycle assay in HeLa cells; type: cell-based, human; conditions: for % cells in cell cycle phase: G1 / % cells in cell cycle phase: G2/M / % cells in cell cycle phase: S / % cells in cell cycle phase: aneuploid / % cells in cell cycle phase: subG1: 48 hours after treatment, relative to untreated control (UTC=100); for phase of the cell cycle in which cells arrest or delay: HeLa
A549 cells = assay: Cell cycle assay in A549 cells; type: cell-based, human; conditions: for % cells in cell cycle phase: G1 / % cells in cell cycle phase: G2/M / % cells in cell cycle phase: S / % cells in cell cycle phase: aneuploid / % cells in cell cycle phase: subG1: A549 cells, relative to the untreated control cells in that phase; for % cells in cell cycle phase: G1 / % cells in cell cycle phase: G2/M / % cells in cell cycle phase: S / % cells in cell cycle phase: aneuploid / % cells in cell cycle phase: subG1 / cell cycle delay or arrest (G2/M), dose response: 24 hours; for cell cycle delay or arrest (G2/M), dose response / G2/M delay or arrest, dose response: A549, 25-, 50-; for cell cycle delay or arrest (G2/M), dose response: 100- or 150 nM; for G2/M delay or arrest, dose response: 100-, or 150 nM
Procedure: In accordance with the present invention, certain oligomeric compounds targeting miRNAs were selected for dose response studies. Using the cell cycle assay described above, the cell cycle profiles of HeLa or A549 cells treated with varying concentrations of oligomeric compounds of the present invention were assessed.
Concomittent decreases in the percentage of cells in G1-phase of the cell cycle and increases in the percentage of hypodiploid (subG1) cells were also observed.
In a further study, A549 cells were treated with 25-, 50-, 100- or 150 nM of the oligomeric compounds ISIS Numbers 338637 (SEQ ID NO: 464) targeted against mir-96, and ISIS 338769 (SEQ ID NO: 596) targeted against mir-130b, ISIS 338836 (SEQ ID NO: 663) targeted against mir-23a, and ISIS 340350 (SEQ ID NO: 855) targeted against mir-95 (Mourelatos). Cells treated with increasing concentrations of oligomeric compounds were compared to untreated cells, to assess the dose-responsiveness of the observed delay or arrest. The random-mer ISIS 29848 was used as a negative control. Cells were prepared for flow cytometry 24-hours after oligonucleotide treatment. Results of these dose response studies are shown in Table 34, where data are expressed as percentage of cells in each phase relative to the untreated control cells in that phase.

HuVECs = assay: Endothelial tube formation assay in HuVECs; conditions: 75 nM
PEPCK-c = PEPCK-c mRNA expression in HepG2 cells; type: cell-based, human; conditions: HepG2, 1 nM insulin, 100 nM
T47D cells = assay: Caspase-3 activity assay (apoptosis) in T47D cells; conditions: caspase assay, 200 nM; conclusion from Tables 9-12
[1] = HeLa cells, 150 nM oligomeric compound, 24 hours, relative to untreated control (UTC = 100)
[2] = HeLa cells, 150 nM oligomeric compound
[3] = HeLa cells, 150 nM, 48 hours, relative to untreated control

Substance: 338637 (antisense TCAGAGCGGAGAGACACAAG; all 2'-MOE, all phosphorothioate, methylation of C not given here) [compound 338637]
- % cells aneuploid (HeLa cells; [1]): 188%
- % cells in cell cycle phase G1 (HeLa cells; [1]): 170%
- % cells in cell cycle phase G2/M (HeLa cells; [1]): 84%
- % cells in cell cycle phase S (HeLa cells; [1]): 70%
- % cells in cell cycle phase subG1 (HeLa cells; [1]): 88%
- % cells in cell cycle phase: G1 (HeLa cells; [2]): 90%
- % cells in cell cycle phase: G2/M (HeLa cells; [2]): 117%
- % cells in cell cycle phase: S (HeLa cells; [2]): 109%
- % cells in cell cycle phase: aneuploid (HeLa cells; [2]): 210%
- % cells in cell cycle phase: subG1 (HeLa cells; [2]): 239%
- % cells in cell cycle phase: G1 (A549 cells; 25 nM): 100%
- % cells in cell cycle phase: G2/M (A549 cells; 25 nM): 101%
- % cells in cell cycle phase: S (A549 cells; 25 nM): 99%
- % cells in cell cycle phase: aneuploid (A549 cells; 25 nM): 99%
- % cells in cell cycle phase: subG1 (A549 cells; 25 nM): 89%
- % cells in cell cycle phase: G1 (A549 cells; 50 nM): 110%
- % cells in cell cycle phase: G2/M (A549 cells; 50 nM): 107%
- % cells in cell cycle phase: S (A549 cells; 50 nM): 89%
- % cells in cell cycle phase: aneuploid (A549 cells; 50 nM): 120%
- % cells in cell cycle phase: subG1 (A549 cells; 50 nM): 86%
- % cells in cell cycle phase: G1 (A549 cells; 100 nM): 126%
- % cells in cell cycle phase: G2/M (A549 cells; 100 nM): 115%
- % cells in cell cycle phase: S (A549 cells; 100 nM): 73%
- % cells in cell cycle phase: aneuploid (A549 cells; 100 nM): 146%
- % cells in cell cycle phase: subG1 (A549 cells; 100 nM): 67%
- % cells in cell cycle phase: G1 (A549 cells; 150 nM): 123%
- % cells in cell cycle phase: G2/M (A549 cells; 150 nM): 144%
- % cells in cell cycle phase: S (A549 cells; 150 nM): 66%
- % cells in cell cycle phase: aneuploid (A549 cells; 150 nM): 135%
- % cells in cell cycle phase: subG1 (A549 cells; 150 nM): 216%

Substance: 338836 (antisense TCCTCGGTGGCAGAGCTCAG; all 2'-MOE, all phosphorothioate, methylation of C not given here) [compound 338836]
- % cells aneuploid (HeLa cells; [1]): 150%
- % cells in cell cycle phase G1 (HeLa cells; [1]): 185%
- % cells in cell cycle phase G2/M (HeLa cells; [1]): 105%
- % cells in cell cycle phase S (HeLa cells; [1]): 53%
- % cells in cell cycle phase subG1 (HeLa cells; [1]): 153%
- % cells in cell cycle phase: G1 (HeLa cells; [2]): 52%
- % cells in cell cycle phase: G2/M (HeLa cells; [2]): 169%
- % cells in cell cycle phase: S (HeLa cells; [2]): 152%
- % cells in cell cycle phase: aneuploid (HeLa cells; [2]): 165%
- % cells in cell cycle phase: subG1 (HeLa cells; [2]): 811%
- % cells in cell cycle phase G1 (HeLa cells; [3]): 97%
- % cells in cell cycle phase G2/M (HeLa cells; [3]): 121%
- % cells in cell cycle phase S (HeLa cells; [3]): 96%
- % cells in cell cycle phase aneuploid (HeLa cells; [3]): 114%
- % cells in cell cycle phase subG1 (HeLa cells; [3]): 303%
- % cells in cell cycle phase: G1 (A549 cells; 25 nM): 97%
- % cells in cell cycle phase: G2/M (A549 cells; 25 nM): 97%
- % cells in cell cycle phase: S (A549 cells; 25 nM): 103%
- % cells in cell cycle phase: aneuploid (A549 cells; 25 nM): 99%
- % cells in cell cycle phase: subG1 (A549 cells; 25 nM): 76%
- % cells in cell cycle phase: G1 (A549 cells; 50 nM): 113%
- % cells in cell cycle phase: G2/M (A549 cells; 50 nM): 98%
- % cells in cell cycle phase: S (A549 cells; 50 nM): 89%
- % cells in cell cycle phase: aneuploid (A549 cells; 50 nM): 111%
- % cells in cell cycle phase: subG1 (A549 cells; 50 nM): 232%
- % cells in cell cycle phase: G1 (A549 cells; 100 nM): 117%
- % cells in cell cycle phase: G2/M (A549 cells; 100 nM): 116%
- % cells in cell cycle phase: S (A549 cells; 100 nM): 80%
- % cells in cell cycle phase: aneuploid (A549 cells; 100 nM): 153%
- % cells in cell cycle phase: subG1 (A549 cells; 100 nM): 68%
- % cells in cell cycle phase: G1 (A549 cells; 150 nM): 117%
- % cells in cell cycle phase: G2/M (A549 cells; 150 nM): 149%
- % cells in cell cycle phase: S (A549 cells; 150 nM): 69%
- % cells in cell cycle phase: aneuploid (A549 cells; 150 nM): 114%
- % cells in cell cycle phase: subG1 (A549 cells; 150 nM): 178%

Substance: GCTTCCCAGCGGCCTATAGT (chemistry not given here) [ISIS 338769]
- phase of the cell cycle in which cells arrest or delay (HeLa cells; 150 nM, 24 hours): G1-phase
- phase of the cell cycle in which cells arrest or delay (HeLa cells; 150 nM, 48 hours): S-phase
- cell cycle delay or arrest (G2/M), dose response (A549 cells): dose-responsive delay or arrest

Substance: GGCTGTCAATTCATAGGTCAG (anti-miR; chemistry not fully specified) [ISIS 327902]
- phase of the cell cycle in which cells arrest or delay (HeLa cells; 150 nM, 24 hours): G2/M-phase
- phase of the cell cycle in which cells arrest or delay (HeLa cells; 150 nM, 48 hours): S- and G2/M-phases
- G2/M delay or arrest, dose response (A549 cells): dose-responsive G2/M delay or arrest
- tube formation (HuVECs): suppressed tube formation

Substance: ISIS 328342: SEQ ID NO: 451, targeting mir-203 (e[5mC]*eA*eA*eT*eT*dG*d[5mC]*dG*d[5mC]*dT*dA*d[5mC]*dA*dG*dA*eA*e[5mC]*eT*eG*eT)
- reduction of PEPCK-c mRNA expression (PEPCK-c): 61%
- phase of the cell cycle in which cells arrest or delay (HeLa cells; 150 nM, both 24 and 48 hours): G2/M-phase
- G2/M delay or arrest, dose response (A549 cells): dose-responsive G2/M delay or arrest

Substance: ISIS 328383: chimeric 2′-MOE gapmer targeted against the mir-192-1 precursor (eA*eG*eA*eG*eG*dG*dG*dA*dG*dA*d[5mC]*dG*dA*dG*dA*eG*e[5mC]*eA*e[5mC]*eT)
- phase of the cell cycle in which cells arrest or delay (HeLa cells; 150 nM, 24 hours): G2/M-phase
- phase of the cell cycle in which cells arrest or delay (HeLa cells; 150 nM, 48 hours): S- and G2/M-phases
- G2/M delay or arrest, dose response (A549 cells): dose-responsive G2/M delay or arrest
- apoptosis in T47D cells (T47D cells): induce apoptosis

Substance: ISIS 338637: SEQ ID NO: 464, targeted against mir-96 (TCAGAGCGGAGAGACACAAG; all 2'-MOE, all phosphorothioate, methylation of C not given here)
- phase of the cell cycle in which cells arrest or delay (HeLa cells; 150 nM, 24 hours): G1-phase
- phase of the cell cycle in which cells arrest or delay (HeLa cells; 150 nM, 48 hours): S-phase
- cell cycle delay or arrest (G2/M), dose response (A549 cells): dose-responsive delay or arrest

Substance: ISIS 338836: SEQ ID NO: 663, targeted against mir-23a (TCCTCGGTGGCAGAGCTCAG; all 2'-MOE, all phosphorothioate, methylation of C not given here)
- phase of the cell cycle in which cells arrest or delay (HeLa cells; 150 nM, 24 hours): G1-phase
- phase of the cell cycle in which cells arrest or delay (HeLa cells; 150 nM, 48 hours): S-phase
- cell cycle delay or arrest (G2/M), dose response (A549 cells): dose-responsive delay or arrest

Substance: ISIS 340350: SEQ ID NO: 855, targeted against mir-95 (Mourelatos) (TGCTCAATAAATACCCGTTGAA; all 2'-MOE, all phosphorothioate, methylation of C not given here)
- phase of the cell cycle in which cells arrest or delay (HeLa cells; 150 nM, 24 hours): G1-phase
- phase of the cell cycle in which cells arrest or delay (HeLa cells; 150 nM, 48 hours): S-phase
- cell cycle delay or arrest (G2/M), dose response (A549 cells): dose-responsive delay or arrest
